This is an account of results in patent US20230374113A1, “FERRITIN NANOCAGE FUSED WITH PD-L1-BINDING PEPTIDE 1 AND USE THEREOF AS ANTICANCER IMMUNOTHERAPY AGENT” (KYUNGPOOK NATIONAL UNIVERSITY INDUSTRY-ACADEMIC COOPERATION …, priority 2020, published 2023).

A short description of data set [1]: Dynamic light scattering (DLS) analysis of cage size. Type of data set: physicochemical.
Data set [2] deals with MDA-MB231 cells expressing PD-L1. Briefly: Culture cell binding assay (confocal) on MDA-MB231 cells. Type of data set: cell-based. The following applies: 100 nM, 4° C., 1 hour; anti-human ferritin heavy chain antibody staining. The procedure:
(§1) Confocal laser scanning microscopy (Confocal) was performed. After culturing triple negative breast cancer cells (MDA-MB 231) or colorectal cancer cells (CT26), a group treated with 25 ng/ml of interferon-γ and a group without treatment were cultured at 37° C. for 24 hours. These cells are cancer cells expressing the PD-L1 receptor and are known to have expression increased upon interferon-γ treatment. […] In order to block nonspecific binding of PD-L1 proteins, blocking was performed using 1% BSA dissolved in PBS at room temperature for 1 hour, then BSA was removed, and PpNF, PpLF, and PpCF (100 nM) were reacted at 4° C. for 1 hour. After washing with PBS, a reaction was performed using anti-human ferritin heavy chain antibodies (1:200 ratio) for 1 hour, followed by staining (green). After fixing with 4% paraformaldehyde, observation was performed under a confocal microscope. To observe the nucleus, DAPI was dissolved in PBS in a ratio of 1:1000, and staining was performed at room temperature for 5-10 minutes (blue).

For data set [3], the system named is CT26 cells expressing PD-L1. Briefly: Culture cell binding assay (confocal) on CT26 cells. Type of data set: cell-based, mouse. The following applies: 100 nM, 4° C., 1 hour; anti-human ferritin heavy chain antibody staining. The procedure: as §1
In data set [4] the test system is MCF-7 cells that do not express PD-L1. Briefly: Culture cell binding assay (confocal) on MCF-7 control cells. Type of data set: cell-based. The following applies: 100 nM, 4° C., 1 hour; PD-L1-negative control cells.
The next data set has as its target T1, PD-1/PD-L1 binding (Mus musculus, UniProt Q9EP73).
T1 construct: endogenous in cells
Briefly: Co-culture of CT26 cancer cells and activated CD8+ T cells (immune checkpoint inhibitory function in vitro). Type of data set: cell-based. The procedure:
CD8^+ T cells were extracted from the spleen obtained by sacrificing BALB/C mice. Extracted CD8^+ T cells were treated with interleukin-2/interleukin-15 and anti-CD-3 antibody/anti-CD-28 antibody each for 24 hours for activation. Prior to treating activated CD8^+ T cells with CFSE and performing symbiotic culture of tumor cells (CT26, mouse colon cancer), tumor cells were pretreated with anti-PD-L1 antibody, PpNF (25 nM or 50 nM), and PD-L1pep1 (50 nM), respectively, and interactions of PD-L1 of tumor cells and […] CD8^+ T cells were inhibited, respectively. After symbiotic culture for 24 hours, CD8^+ T cells were isolated (FIG. 4A). The degree of CFSE binding to isolated T cells was measured with a flow cytometer (FIG. 4B). In addition, the amount of interferon gamma secreted by isolated T cells was measured using an enzyme-linked immunosorbent assay (FIG. 4C).
CD8^+ T cells isolated from mice were activated (IL-2/IL-15 treatment and anti-CD3/anti-CD28 treatment), labeled with fluorescence (CFSE staining), and cultured with CT26 colorectal cancer cells.

For another data set, the system named is GL26 glioblastoma. To be noted: mouse, in vivo. The procedure: In addition, the glioblastoma targeting effect of the immune checkpoint blocking nanocage was identified. GL26, a glioblastoma cell line, was injected into the left side of the mouse brain to create an orthotopic GBM model and fluorescently labeled PBP1-N-FtH was injected into the tail vein [control: saline, ferritin].

A further data set has as its system CT26 tumor. The class given is in vivo, BALB/c wildtype mice. The procedure: CT26 cells were injected subcutaneously into the upper right thigh of BALB/c wildtype mice. When the tumor was about 100 mm^3 in size, mice were randomly divided into four groups. […] A total of 10 injections were performed once every two days (once every 4 days, repeated 6 times in total for anti-PD-L1 antibodies) to measure tumor size and weight of mice (FIGS. 7B and 7D). After 3 weeks, the tumor was removed by sacrificing mice and the tumor was weighed (FIG. 7C). The extracellular matrix of the removed tumor was degraded with collagenase to form single cells, and antibodies against labeled proteins of CD4^+ T cells, CD8^+ T cells, and regulatory T cells were each treated to analyze how many T cells are each present in the tumor by flow cytometry (FIGS. 7E to 7G).

Data set [5] can be described thus: Biotoxicity via blood and serologic analysis. The class given is in vivo, mice. The procedure: After antitumor animal experiments, blood and serum were collected from each group when sacrificing mice, and the amounts of red blood cells, hemoglobin, hematocrit, white blood cells, and neutrophils in the blood, blood urea nitrogen in serum, creatinine, alanine aminotransferase, and aspartate aminotransferase were measured and compared.

In data set [6] the test system is CT-2A cells overexpressing PD-L1. Description: In vitro binding to CT-2A glioma cells. The class given is cell-based, mouse. The following applies: 4° C., 1 h; compared to wFTH. The procedure: (§2) Mouse glioma cells, CT-2A or GL26 cells, were treated with PpNF or wild-type ferritin (wFTH) at 4° C. for 1 h; binding was monitored by antiferritin antibody (green). Nuclei were visualized by counterstaining with DAPI (blue). Scale bars: 30 μm.

For data set [7], the system named is GL26 cells overexpressing PD-L1. Description: In vitro binding to GL26 glioma cells. The class given is cell-based, mouse. The following applies: 4° C., 1 h; compared to wFTH. The procedure:
as §2

In data set [8] the test system is CT-2A glioma. More on the design: species or system C57BL/6 mice. The following applies: mouse, in vivo, iv. On the procedure:
(A) Representative images of the upper body of mice. The yellow circle indicates the tumor. C57BL/6 mice were implanted with CT-2A glioma cells (3×10^5). At 14 days after intracranial inoculation, the tumor-bearing mice were intravenously injected with Flamma 675-labeled PpNF or wFTH followed by in vivo scanning with the IVIS imaging system. (B) Ex vivo biodistribution was examined at 24 h postinjection.
B6 mice aged 6-8 weeks were anesthetized with an intraperitoneal injection of Zoletil 50 (20 mg/kg, Virba) and Rompun (4 mg/kg, Bayer). For stereotactic intracranial injections of CT-2A cells, the surgical site was shaved and prepared with 70% ethyl alcohol. After disinfection and incision of the skin, tumor cells were stereotaxically implanted in the brain using the following coordinates: AP=+0.2 mm; ML=+2 mm; DV=−3 mm from the bregma. CT-2A cells (10^4 cells) were resuspended in 3 μl of PBS and implanted at an infusion rate of 3 μl/5 min.
For in vivo targeting of PD-L1pep ferritin nanocages in intracranial brain tumors, CT-2A cells (3×10^5 cells) were resuspended in 3 μl of PBS and implanted in the brain. At 14 days after implantation of CT-2A cells, Flamma 675-labeled Pp1NF, Pp2NF, and wt ferritin were intravenously injected (n=3 mice/group). […] Fluorescence emission values were analyzed as photons per second per centimeter squared per steradian (p/s/cm^2/sr).

Data set [9] has as its system CT-2A glioma. Briefly: Antitumor activity in orthotopic CT-2A glioma mouse model. The class given is in vivo, C57BL/6 mice. To be noted: 5 mg/kg intravenously three times per week, six injections. The procedure:
(A) Experimental scheme for antitumor treatments. CT-2A syngeneic mouse brain tumor cells were implanted into the brains of C57BL/6 mice. Treatments were initiated at 7 days after confirming tumor growth by MRI. PpNF (5 mg/kg, n=3) or wFTH (5 mg/kg, n=3) were intravenously injected three times per week. (B) Representative brain MRI images showing tumor growth at 7, 14, and 21 days. The dotted line indicates the tumor region. (C) Tumor volumes measured by MRI. (D) Body weights. Data represent mean±SEM (*p<0.05; t-test). The data presented are representative of three independent experiments. B6 mice aged 6-8 weeks were anesthetized with an intraperitoneal injection of Zoletil 50 (20 mg/kg, Virba) and Rompun (4 mg/kg, Bayer). For stereotactic intracranial injections of CT-2A cells, the surgical site was shaved and prepared with 70% ethyl alcohol. After disinfection and incision of the skin, tumor cells were stereotaxically implanted in the brain using the following coordinates: AP=+0.2 mm; ML=+2 mm; DV=−3 mm from the bregma. CT-2A cells (10^4 cells) were resuspended in 3 μl of PBS and implanted at an infusion rate of 3 μl/5 min. […] Tumor growth was examined by animal MRI (7T BioSpec 70/20USR) in the tumor-bearing mice using Onis 2.5 viewer software, and tumor volume was calculated (Average tumor cross-sectional area (mm^2)×summed thickness of tumor cross-sections (mm).

The test system of data set [10] is CD8+ T cells cocultured with CT-2A. Description: Triple coculture of CD8+ T cells with CT-2A glioma cells and primary glia. The class given is cell-based, mouse. To be noted: 25 nM, 48 h triple coculture. On the procedure: CD8^+ T cells were directly cocultured with CT-2A (A,B) or GL26 (C, D) glioma cells in the presence of glia. Cocultures were treated with 25 nM wild-type nanocage (wFTH), PD-L1pep1 ferritin nanocage (PpNF) or their corresponding buffer (buf), respectively. Fold changes in IFN-γ secretion during triple coculture using (A) CT-2A or (C) GL26 cells with the indicated treatments. T cell-only group was used as a control. (B) Proliferation of CD8^+ T cells during coculture with CT-2A and primary glia. The percentages of daughter cells upon cell division were determined using CellTrace Violet (CTV) dye. (D) Expression of CD107a on the surface of CD8^+ T cells after triple coculture using GL26. The percentages of CD107a^+ populations in live CD8^+ T cells were measured by flow cytometry. All graphs represent mean±SD; n=3 independent wells. […]
(§3) Cocultures were treated with 25 nM ferritin nanocages (PpNF or Pp2NF) including the wild-type nanocage (wFTH) or their corresponding buffer, respectively. […] IFN-γ concentrations were quantified with a mouse IFN-γ ELISA kit (R&D Systems Inc., SMIF00) as previously described. […]
Annexin-V as described above. The percentages of CTV dilution upon cell division were measured by flow cytometry. All flow cytometry data were obtained using a BD FACS Verse cytometer and analyzed by FlowJo software (Tree Star).

Data set [11] relates to CD8+ T cells cocultured with GL26. Description: Triple coculture of CD8+ T cells with GL26 glioma cells and primary glia. The class given is cell-based, mouse. The following applies: 25 nM, 48 h triple coculture, IFN-γ secretion, CD107a. The procedure: CD8^+ T cells were directly cocultured with CT-2A (A,B) or GL26 (C, D) glioma cells in the presence of glia. Cocultures were treated with 25 nM wild-type nanocage (wFTH), PD-L1pep1 ferritin nanocage (PpNF) or their corresponding buffer (buf), respectively. Fold changes in IFN-γ secretion during triple coculture using (A) CT-2A or (C) GL26 cells with the indicated treatments. T cell-only group was used as a control. (B) Proliferation of CD8^+ T cells during coculture with CT-2A and primary glia. The percentages of daughter cells upon cell division were determined using CellTrace Violet (CTV) dye. (D) Expression of CD107a on the surface of CD8^+ T cells after triple coculture using GL26. The percentages of CD107a^+ populations in live CD8^+ T cells were measured by flow cytometry. All graphs represent mean±SD; n=3 independent wells. (*p<0.05, **p<0.01, ***p<0.001, and ****p<0.0001; multiple comparisons were conducted using one-way ANOVA followed by Tukey's test.)
Primary glia were cultured from C57BL/6 mice, and the cells were seeded in a 96-well flat bottom plate at a density of 10^4 cells/well. […]
as §3

T1 sequence (Q9EP73 19-290): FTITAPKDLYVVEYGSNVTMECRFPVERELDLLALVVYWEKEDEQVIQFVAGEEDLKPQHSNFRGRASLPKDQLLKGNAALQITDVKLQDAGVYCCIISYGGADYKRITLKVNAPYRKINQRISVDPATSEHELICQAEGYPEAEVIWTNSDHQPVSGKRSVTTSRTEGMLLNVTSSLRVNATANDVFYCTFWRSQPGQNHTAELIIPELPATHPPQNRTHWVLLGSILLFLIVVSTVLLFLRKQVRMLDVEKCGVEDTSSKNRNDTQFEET

Turning to “PpNF: Ferritin nanocage: PD-L1-binding peptide 1 (CLQKTPKQC) inserted at nitrogen terminal of human ferritin heavy chain fragment (1-161) with GG linker”, the “cage size (DLS)” value in [1] is on record as “about 24 nm”. Moreover, the “binding in MDA-MB231 cells” value in [2] is reported as “bound”. Also, in data set [3], the “binding in CT26 cells” value is reported as “bound”. In [4], the “binding in MCF-7 cells” value is recorded as “the binding did not take place”. Further, in the data set with PD-1/PD-L1 binding (24 hours co-culture, PpNF 25 nM or 50 nM), the “IFN-γ secreted by T cells (ELISA)” value was “IFN-γ increment”. For the same substance, the “immune checkpoint inhibitory effect versus comparators” value in the data set with PD-1/PD-L1 binding (versus PD-L1 antibody, PD-L1pep1 (50 nM)) is “better than that of PD-L1 antibody or PD-L1pep1”. The “glioblastoma targeting (brain fluorescence signal)” value in the data set with GL26 glioblastoma was “targeted to the tumor site on the left side of the brain”. In addition, the tumor growth entry in the data set on CT26 tumor (10 mg/kg tail vein, 10 injections once every two days) is given as “significantly inhibited tumor growth compared to the control”. Also, the “weight of the tumor” value with CT26 tumor (after 3 weeks) was “much smaller”. Moreover, in the data set on CT26 tumor (flow cytometry), the “proportion of CD8+ T cells in the tumor” value was “increasing the proportion of CD8^+ T cells in the tumor”; the “ratio of CD8+ T cells and regulatory T cells in the tumor” value is given as “significantly increased compared to the control”. In addition, in data set [5] (blood after antitumor animal experiments), the hematologic change entry is “no significant hematologic change”. The “hepatotoxicity or nephrotoxicity (BUN, creatinine, ALT, AST)” value in [5] (serum after antitumor animal experiments) is “No hepatotoxicity or nephrotoxicity was observed”. Moreover, the “binding in CT-2A glioma cells” value in data set [6] is recorded as “bound specifically”. Besides, in data set [7], the “binding in GL26 glioma cells” value was “bound specifically”. Also, in the data set on CT-2A glioma [8], the BBB crossing entry was “crossed the BBB” and the “accumulation in glioblastoma in the brain” value is “accumulated in glioblastoma expressed in the brain by 24 hours”. In addition, in the data set with CT-2A glioma [9], the “antitumor effects (tumor volume by MRI)” value was “showed antitumor effects”. Further, the “proliferation of CD8+ T cells” value in data set [10] (CTV dye) is reported as “increased”. Also, the “activity of CD8+ T cells” value in data set [10] (IFN-γ secretion) was “increased”. In addition, the “activity of CD8+ T cells” value in data set [11] is “increased”.
